{"source": "the kinase profiling compilation of Christmann-Franck et al. (2016)", "assay_in_all_cases": "radiometric filter-binding kinase assay", "key": {"[1]": {"biological_target": "EPHB2 (human) (UniProt P29323)", "conditions": "compound 1.0 µM"}, "[2]": {"biological_target": "YES1 (human) (UniProt P07947)", "conditions": "compound 1.0 µM"}, "[3]": {"biological_target": "RPS6KA5 KD1 KD2 (human) (UniProt O75582)", "conditions": "compound 10.0 µM"}, "[4]": {"test_system": "PAK2 (human), Q13177 [T402E]", "conditions": "compound 1.0 µM"}, "[5]": {"biological_target": "CSNK1D (human) (UniProt P48730)", "conditions": "compound 1.0 µM"}, "[6]": {"biological_target": "STK33 (human) (UniProt Q9BYT3)"}, "[7]": {"biological_target": "PTK6 (human) (UniProt Q13882)"}, "[8]": {"biological_target": "NEK6 (human) (UniProt Q9HC98)", "conditions": "compound 10.0 µM"}, "[9]": {"biological_target": "ZAP70 (human) (UniProt P43403)", "conditions": "compound 1.0 µM"}, "[10]": {"biological_target": "RPS6KA1 KD1 KD2 (human) (UniProt Q15418)", "conditions": "compound 1.0 µM"}, "[11]": {"biological_target": "MELK (human) (UniProt Q14680)", "conditions": "compound 1.0 µM"}, "[12]": {"biological_target": "PHKG1 (human) (UniProt Q16816)", "sequence (Q16816 whole entry, looked up)": "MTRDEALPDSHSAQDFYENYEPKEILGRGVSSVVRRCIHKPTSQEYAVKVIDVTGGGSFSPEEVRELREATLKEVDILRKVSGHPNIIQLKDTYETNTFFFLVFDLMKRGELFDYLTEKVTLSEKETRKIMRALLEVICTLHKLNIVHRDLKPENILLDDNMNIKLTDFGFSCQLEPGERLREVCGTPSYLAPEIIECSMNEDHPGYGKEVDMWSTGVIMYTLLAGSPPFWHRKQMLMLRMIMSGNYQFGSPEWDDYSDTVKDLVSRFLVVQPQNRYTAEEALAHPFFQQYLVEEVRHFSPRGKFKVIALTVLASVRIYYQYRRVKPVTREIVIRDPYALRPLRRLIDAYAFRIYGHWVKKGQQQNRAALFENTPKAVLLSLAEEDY"}, "[13]": {"biological_target": "MAPK14 (human) (UniProt Q16539)"}, "[14]": {"biological_target": "MAPK9 (human) (UniProt P45984)", "conditions": "compound 1.0 µM"}, "[15]": {"biological_target": "CSK (human) (UniProt P41240)", "conditions": "compound 1.0 µM"}, "[16]": {"biological_target": "PKN2 (human) (UniProt Q16513)", "conditions": "compound 10.0 µM"}, "[17]": {"test_system": "LCK (mouse)", "conditions": "compound 1.0 µM; accession and sequence are those of the human protein"}, "[18]": {"biological_target": "MAP3K7 TAB1 (human) (UniProt Q15750+O43318)"}, "[19]": {"biological_target": "SYK (human) (UniProt P43405)"}, "[20]": {"biological_target": "MAP2K1 (human) (UniProt Q02750)", "conditions": "compound 1.0 µM"}, "[21]": {"biological_target": "MYLK (human) (UniProt Q15746)"}, "[22]": {"test_system": "PRKAA1 or PRKAA2 (rat)", "conditions": "compound 1.0 µM; accession and sequence are those of the human protein"}, "[23]": {"biological_target": "WNK1 (human) (UniProt Q9H4A3)"}, "[24]": {"biological_target": "EPHB3 (human) (UniProt P54753)"}, "[25]": {"biological_target": "DYRK3 (human) (UniProt O43781)", "conditions": "compound 1.0 µM"}, "[26]": {"biological_target": "TSSK1B (human) (UniProt Q9BXA7)", "conditions": "compound 1.0 µM"}, "[27]": {"biological_target": "MINK1 (human) (UniProt Q8N4C8)", "conditions": "compound 10.0 µM"}, "[28]": {"biological_target": "STK11 CAB39 STRADA (human) (UniProt Q9Y376+Q7RTN6+Q15831)", "sequence (Q15831 whole entry, looked up)": "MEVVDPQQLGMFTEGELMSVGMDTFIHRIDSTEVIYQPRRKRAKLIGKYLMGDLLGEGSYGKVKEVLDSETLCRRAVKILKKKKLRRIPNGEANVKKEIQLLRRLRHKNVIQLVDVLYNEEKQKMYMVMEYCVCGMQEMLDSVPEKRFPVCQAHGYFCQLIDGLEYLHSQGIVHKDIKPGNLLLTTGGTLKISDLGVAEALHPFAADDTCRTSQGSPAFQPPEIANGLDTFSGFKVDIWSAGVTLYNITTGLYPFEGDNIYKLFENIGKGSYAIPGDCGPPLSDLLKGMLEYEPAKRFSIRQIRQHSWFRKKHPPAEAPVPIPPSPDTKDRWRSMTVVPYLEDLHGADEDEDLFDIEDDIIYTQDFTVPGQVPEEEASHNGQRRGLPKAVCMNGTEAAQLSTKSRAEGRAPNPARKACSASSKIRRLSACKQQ", "sequence (Q7RTN6 whole entry, looked up)": "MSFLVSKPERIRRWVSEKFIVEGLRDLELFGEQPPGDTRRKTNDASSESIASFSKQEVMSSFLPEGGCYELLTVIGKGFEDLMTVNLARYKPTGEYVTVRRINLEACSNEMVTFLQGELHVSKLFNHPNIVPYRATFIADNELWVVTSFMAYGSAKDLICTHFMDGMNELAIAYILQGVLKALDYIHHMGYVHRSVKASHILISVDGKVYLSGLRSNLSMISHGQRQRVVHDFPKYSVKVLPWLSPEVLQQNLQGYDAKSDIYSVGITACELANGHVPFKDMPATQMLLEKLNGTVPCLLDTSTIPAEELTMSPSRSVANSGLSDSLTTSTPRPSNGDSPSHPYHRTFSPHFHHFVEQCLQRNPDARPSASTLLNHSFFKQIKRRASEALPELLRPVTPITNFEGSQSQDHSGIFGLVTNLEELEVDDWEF", "sequence (Q9Y376 whole entry, looked up)": "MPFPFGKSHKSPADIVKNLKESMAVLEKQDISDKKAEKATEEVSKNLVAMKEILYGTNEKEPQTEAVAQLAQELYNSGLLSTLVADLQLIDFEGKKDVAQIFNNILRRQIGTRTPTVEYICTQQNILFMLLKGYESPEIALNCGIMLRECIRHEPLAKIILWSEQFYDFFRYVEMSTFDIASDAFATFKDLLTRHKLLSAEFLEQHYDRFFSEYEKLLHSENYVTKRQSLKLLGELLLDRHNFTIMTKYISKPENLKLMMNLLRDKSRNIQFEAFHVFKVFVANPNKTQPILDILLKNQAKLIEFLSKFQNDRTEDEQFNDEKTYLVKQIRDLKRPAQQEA"}, "[29]": {"biological_target": "NUAK1 (human) (UniProt O60285)", "sequence (O60285 whole entry, looked up)": "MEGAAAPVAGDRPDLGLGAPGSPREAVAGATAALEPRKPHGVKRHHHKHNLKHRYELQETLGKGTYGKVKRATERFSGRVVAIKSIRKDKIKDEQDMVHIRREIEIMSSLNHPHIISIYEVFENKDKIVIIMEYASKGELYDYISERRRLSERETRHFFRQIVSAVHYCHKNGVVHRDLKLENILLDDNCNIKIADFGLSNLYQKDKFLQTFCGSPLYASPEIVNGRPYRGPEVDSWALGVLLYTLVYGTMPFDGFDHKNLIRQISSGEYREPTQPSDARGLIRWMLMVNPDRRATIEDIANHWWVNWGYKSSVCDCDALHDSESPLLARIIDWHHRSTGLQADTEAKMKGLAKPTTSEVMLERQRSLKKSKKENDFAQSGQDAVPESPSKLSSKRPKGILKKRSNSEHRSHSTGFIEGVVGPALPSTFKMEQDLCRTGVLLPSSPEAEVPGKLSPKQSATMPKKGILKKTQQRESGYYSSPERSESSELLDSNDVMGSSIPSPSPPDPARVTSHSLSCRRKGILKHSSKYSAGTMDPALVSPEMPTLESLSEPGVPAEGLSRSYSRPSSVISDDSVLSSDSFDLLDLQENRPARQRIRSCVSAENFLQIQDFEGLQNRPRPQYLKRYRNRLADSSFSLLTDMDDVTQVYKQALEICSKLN"}, "[30]": {"biological_target": "SIK2 (human) (UniProt Q9H0K1)", "conditions": "compound 10.0 µM"}, "[31]": {"biological_target": "EPHB4 (human) (UniProt P54760)", "sequence (P54760 whole entry, looked up)": "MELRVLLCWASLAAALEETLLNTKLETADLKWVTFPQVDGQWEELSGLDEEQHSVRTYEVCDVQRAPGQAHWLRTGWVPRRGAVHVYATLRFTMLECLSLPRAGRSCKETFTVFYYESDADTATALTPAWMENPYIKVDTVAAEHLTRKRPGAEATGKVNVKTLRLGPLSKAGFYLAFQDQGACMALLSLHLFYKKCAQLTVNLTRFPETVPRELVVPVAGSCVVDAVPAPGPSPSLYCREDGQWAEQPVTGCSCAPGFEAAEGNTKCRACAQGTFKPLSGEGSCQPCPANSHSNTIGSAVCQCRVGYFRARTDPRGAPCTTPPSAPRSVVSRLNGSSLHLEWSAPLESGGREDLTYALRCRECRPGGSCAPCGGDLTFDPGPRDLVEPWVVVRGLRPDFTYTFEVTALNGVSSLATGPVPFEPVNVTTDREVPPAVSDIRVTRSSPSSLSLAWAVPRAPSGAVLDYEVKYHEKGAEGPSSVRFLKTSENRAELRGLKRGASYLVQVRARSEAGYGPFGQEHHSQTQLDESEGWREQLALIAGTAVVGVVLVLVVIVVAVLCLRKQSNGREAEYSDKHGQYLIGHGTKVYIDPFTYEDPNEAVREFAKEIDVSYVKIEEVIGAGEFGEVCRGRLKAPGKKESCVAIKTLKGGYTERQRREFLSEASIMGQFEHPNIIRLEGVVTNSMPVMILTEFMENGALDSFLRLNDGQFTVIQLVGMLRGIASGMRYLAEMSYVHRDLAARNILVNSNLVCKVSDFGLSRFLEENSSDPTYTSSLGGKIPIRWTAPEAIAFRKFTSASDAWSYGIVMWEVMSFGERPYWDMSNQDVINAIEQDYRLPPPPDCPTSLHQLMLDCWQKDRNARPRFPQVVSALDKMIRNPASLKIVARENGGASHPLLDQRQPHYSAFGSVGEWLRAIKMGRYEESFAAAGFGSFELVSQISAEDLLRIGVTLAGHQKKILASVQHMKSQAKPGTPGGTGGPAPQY"}, "[32]": {"biological_target": "CAMKK2 (human) (UniProt Q96RR4)", "conditions": "compound 1.0 µM"}, "[33]": {"biological_target": "MAPKAPK5 (human) (UniProt Q8IW41)"}, "[34]": {"biological_target": "MAPK1 (human) (UniProt P28482)", "conditions": "compound 10.0 µM"}, "[35]": {"biological_target": "SRC (human) (UniProt P12931)", "conditions": "compound 10.0 µM"}, "[36]": {"biological_target": "IKBKE (human) (UniProt Q14164)", "conditions": "compound 10.0 µM"}, "[37]": {"biological_target": "NTRK1 (human) (UniProt P04629)", "conditions": "compound 1.0 µM"}, "[38]": {"biological_target": "CDK2 CCNA2 (human) (UniProt P20248+P24941)"}, "[39]": {"biological_target": "MAP3K9 (human) (UniProt P80192)", "conditions": "compound 1.0 µM"}, "[40]": {"biological_target": "INSRR (human) (UniProt P14616)", "conditions": "compound 1.0 µM"}, "[41]": {"biological_target": "TEK (human) (UniProt Q02763)"}, "[42]": {"biological_target": "RIPK2 (human) (UniProt O43353)"}, "[43]": {"biological_target": "PIM1 (human) (UniProt P11309)", "sequence (P11309 whole entry, looked up)": "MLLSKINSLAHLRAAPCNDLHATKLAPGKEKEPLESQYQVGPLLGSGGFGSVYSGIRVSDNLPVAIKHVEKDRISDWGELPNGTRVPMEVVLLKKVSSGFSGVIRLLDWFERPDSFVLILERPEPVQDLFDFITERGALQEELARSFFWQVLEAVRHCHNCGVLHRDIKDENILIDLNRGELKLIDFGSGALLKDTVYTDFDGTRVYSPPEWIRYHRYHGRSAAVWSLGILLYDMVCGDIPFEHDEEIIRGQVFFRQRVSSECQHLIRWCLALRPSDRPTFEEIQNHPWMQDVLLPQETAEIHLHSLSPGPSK"}, "[44]": {"biological_target": "SRPK1 (human) (UniProt Q96SB4)"}, "[45]": {"biological_target": "GSK3B (human) (UniProt P49841)", "conditions": "compound 1.0 µM"}, "[46]": {"biological_target": "STK24 (human) (UniProt Q9Y6E0)", "conditions": "compound 1.0 µM"}, "[47]": {"biological_target": "IGF1R (human) (UniProt P08069)", "sequence (P08069 whole entry, looked up)": "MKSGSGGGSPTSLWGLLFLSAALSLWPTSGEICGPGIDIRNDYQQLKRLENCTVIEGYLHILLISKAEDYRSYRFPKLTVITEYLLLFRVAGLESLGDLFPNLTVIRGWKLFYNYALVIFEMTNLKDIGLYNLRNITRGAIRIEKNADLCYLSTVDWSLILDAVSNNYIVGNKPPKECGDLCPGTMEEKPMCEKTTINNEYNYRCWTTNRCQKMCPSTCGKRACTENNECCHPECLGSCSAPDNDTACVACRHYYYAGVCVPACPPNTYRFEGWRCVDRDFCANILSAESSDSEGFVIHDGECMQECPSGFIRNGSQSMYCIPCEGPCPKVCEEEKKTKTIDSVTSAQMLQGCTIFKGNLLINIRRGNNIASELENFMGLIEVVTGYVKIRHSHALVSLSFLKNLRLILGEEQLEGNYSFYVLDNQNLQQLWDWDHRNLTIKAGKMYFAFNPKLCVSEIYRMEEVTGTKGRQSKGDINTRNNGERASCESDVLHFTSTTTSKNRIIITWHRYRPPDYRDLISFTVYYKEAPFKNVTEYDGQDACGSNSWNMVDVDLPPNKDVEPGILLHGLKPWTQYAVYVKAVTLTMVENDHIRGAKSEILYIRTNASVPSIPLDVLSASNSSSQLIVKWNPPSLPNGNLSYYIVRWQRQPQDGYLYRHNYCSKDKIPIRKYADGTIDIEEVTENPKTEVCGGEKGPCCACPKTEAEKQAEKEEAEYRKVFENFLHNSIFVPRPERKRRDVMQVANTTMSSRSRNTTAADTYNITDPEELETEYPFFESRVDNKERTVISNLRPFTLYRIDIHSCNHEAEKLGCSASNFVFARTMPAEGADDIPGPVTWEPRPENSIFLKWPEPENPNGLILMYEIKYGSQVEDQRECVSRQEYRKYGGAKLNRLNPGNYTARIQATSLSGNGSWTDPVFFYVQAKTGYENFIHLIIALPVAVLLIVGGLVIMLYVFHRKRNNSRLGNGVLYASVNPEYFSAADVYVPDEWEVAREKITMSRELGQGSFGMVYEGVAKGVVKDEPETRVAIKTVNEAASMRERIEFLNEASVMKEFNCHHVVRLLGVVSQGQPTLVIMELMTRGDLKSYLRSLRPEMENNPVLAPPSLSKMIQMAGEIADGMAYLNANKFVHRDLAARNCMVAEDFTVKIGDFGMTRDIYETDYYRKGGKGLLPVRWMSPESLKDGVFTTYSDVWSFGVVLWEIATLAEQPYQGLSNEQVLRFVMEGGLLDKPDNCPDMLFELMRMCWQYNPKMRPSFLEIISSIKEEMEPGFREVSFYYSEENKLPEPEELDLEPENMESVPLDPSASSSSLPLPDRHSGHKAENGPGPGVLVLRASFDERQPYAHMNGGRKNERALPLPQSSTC"}}}
{"smiles": "O=C(Nc1cccnc1)c1cc(-c2ccnc(F)c2)ccc1OCc1ccccc1", "values": [{"measurement": "residual activity", "setting": "[1]", "result": 123, "unit": "%"}, {"measurement": "residual activity", "setting": "[2]", "result": 120, "unit": "%"}, {"measurement": "residual activity", "setting": "[3]", "result": 120, "unit": "%"}, {"measurement": "residual activity", "setting": "[4]", "result": 116, "unit": "%"}, {"measurement": "residual activity", "setting": "[5]", "result": 107, "unit": "%"}, {"measurement": "residual activity", "setting": "[6]; compound 1.0 µM", "result": 64, "unit": "%"}, {"measurement": "residual activity", "setting": "[6]; compound 10.0 µM", "result": 66, "unit": "%"}, {"measurement": "residual activity", "setting": "[7]; compound 1.0 µM", "result": 103, "unit": "%"}, {"measurement": "residual activity", "setting": "[7]; compound 10.0 µM", "result": 101, "unit": "%"}, {"measurement": "residual activity", "setting": "[8]", "result": 65, "unit": "%"}, {"measurement": "residual activity", "setting": "[9]", "result": 103, "unit": "%"}, {"measurement": "residual activity", "setting": "[10]", "result": 69, "unit": "%"}, {"measurement": "residual activity", "setting": "[11]", "result": 102, "unit": "%"}, {"measurement": "residual activity", "setting": "[12]; compound 1.0 µM", "result": 78, "unit": "%"}, {"measurement": "residual activity", "setting": "[12]; compound 10.0 µM", "result": 75, "unit": "%"}, {"measurement": "residual activity", "setting": "[13]; compound 1.0 µM", "result": 101, "unit": "%"}, {"measurement": "residual activity", "setting": "[13]; compound 10.0 µM", "result": 102, "unit": "%"}, {"measurement": "residual activity", "setting": "[14]", "result": 107, "unit": "%"}, {"measurement": "residual activity", "setting": "[15]", "result": 104, "unit": "%"}, {"measurement": "residual activity", "setting": "[16]", "result": 79, "unit": "%"}, {"measurement": "residual activity", "setting": "[17]", "result": 113, "unit": "%"}, {"measurement": "residual activity", "setting": "[18]; compound 1.0 µM", "result": 108, "unit": "%"}, {"measurement": "residual activity", "setting": "[18]; compound 10.0 µM", "result": 101, "unit": "%"}, {"measurement": "residual activity", "setting": "[19]; compound 1.0 µM", "result": 115, "unit": "%"}, {"measurement": "residual activity", "setting": "[19]; compound 10.0 µM", "result": 125, "unit": "%"}, {"measurement": "residual activity", "setting": "[20]", "result": 77, "unit": "%"}, {"measurement": "residual activity", "setting": "[21]; compound 1.0 µM", "result": 32, "unit": "%"}, {"measurement": "residual activity", "setting": "[21]; compound 10.0 µM", "result": 23, "unit": "%"}, {"measurement": "residual activity", "setting": "[22]", "result": 90, "unit": "%"}, {"measurement": "residual activity", "setting": "[23]; compound 1.0 µM", "result": 104, "unit": "%"}, {"measurement": "residual activity", "setting": "[23]; compound 10.0 µM", "result": 106, "unit": "%"}, {"measurement": "residual activity", "setting": "[24]; compound 1.0 µM", "result": 121, "unit": "%"}, {"measurement": "residual activity", "setting": "[24]; compound 10.0 µM", "result": 113, "unit": "%"}, {"measurement": "residual activity", "setting": "[25]", "result": 101, "unit": "%"}, {"measurement": "residual activity", "setting": "[26]", "result": 103, "unit": "%"}, {"measurement": "residual activity", "setting": "[27]", "result": 76, "unit": "%"}, {"measurement": "residual activity", "setting": "[28]; compound 1.0 µM", "result": 97, "unit": "%"}, {"measurement": "residual activity", "setting": "[28]; compound 10.0 µM", "result": 105, "unit": "%"}, {"measurement": "residual activity", "setting": "[29]; compound 1.0 µM", "result": 31, "unit": "%"}, {"measurement": "residual activity", "setting": "[29]; compound 10.0 µM", "result": 58, "unit": "%"}, {"measurement": "residual activity", "setting": "[30]", "result": 111, "unit": "%"}, {"measurement": "residual activity", "setting": "[31]; compound 1.0 µM", "result": 118, "unit": "%"}, {"measurement": "residual activity", "setting": "[31]; compound 10.0 µM", "result": 108, "unit": "%"}, {"measurement": "residual activity", "setting": "[32]", "result": 71, "unit": "%"}, {"measurement": "residual activity", "setting": "[33]; compound 1.0 µM", "result": 109, "unit": "%"}, {"measurement": "residual activity", "setting": "[33]; compound 10.0 µM", "result": 114, "unit": "%"}, {"measurement": "residual activity", "setting": "[34]", "result": 115, "unit": "%"}, {"measurement": "residual activity", "setting": "[35]", "result": 160, "unit": "%"}, {"measurement": "residual activity", "setting": "[36]", "result": 102, "unit": "%"}, {"measurement": "residual activity", "setting": "[37]", "result": 80, "unit": "%"}, {"measurement": "residual activity", "setting": "[38]; compound 1.0 µM", "result": 113, "unit": "%"}, {"measurement": "residual activity", "setting": "[38]; compound 10.0 µM", "result": 117, "unit": "%"}, {"measurement": "residual activity", "setting": "[39]", "result": 69, "unit": "%"}, {"measurement": "residual activity", "setting": "[40]", "result": 76, "unit": "%"}, {"measurement": "residual activity", "setting": "[41]; compound 1.0 µM", "result": 119, "unit": "%"}, {"measurement": "residual activity", "setting": "[41]; compound 10.0 µM", "result": 133, "unit": "%"}, {"measurement": "residual activity", "setting": "[42]; compound 1.0 µM", "result": 59, "unit": "%"}, {"measurement": "residual activity", "setting": "[42]; compound 10.0 µM", "result": 56, "unit": "%"}, {"measurement": "residual activity", "setting": "[43]; compound 1.0 µM", "result": 102, "unit": "%"}, {"measurement": "residual activity", "setting": "[43]; compound 10.0 µM", "result": 109, "unit": "%"}, {"measurement": "residual activity", "setting": "[44]; compound 1.0 µM", "result": 61, "unit": "%"}, {"measurement": "residual activity", "setting": "[44]; compound 10.0 µM", "result": 69, "unit": "%"}, {"measurement": "residual activity", "setting": "[45]", "result": 119, "unit": "%"}, {"measurement": "residual activity", "setting": "[46]", "result": 101, "unit": "%"}, {"measurement": "residual activity", "setting": "[47]; compound 1.0 µM", "result": 123, "unit": "%"}, {"measurement": "residual activity", "setting": "[47]; compound 10.0 µM", "result": 117, "unit": "%"}]}
